Experimental data from ChEMBL document CHEMBL1681652, “Synthesis and evaluation of 2-phenyl-1,4-butanediamine-based CCR5 antagonists for the treatment of HIV-1” (Bioorg Med Chem Lett, 2011).
pIC50: −log10 of the molar value. Blank lines part the entries; values can stand above or below the compound they belong to.

Columns and labels:
[1] = system: Human immunodeficiency virus 1; experiment: Antiviral activity against HIV1 Ba-L infected in human HOS cells expressing CCR5 after 4 days; assay type: functional, organism-based
[2] = system: Human immunodeficiency virus 1; experiment: Antiviral activity against HIV1 Ba-L infected in human PBL cells assessed as reverse transcriptase activity after 7 days; assay type: functional, organism-based; details: Human immunodeficiency virus 1, Ba-L, 168 h
[3] = Oral bioavailability in Sprague-Dawley rat at 1 mg/kg; assay type: ADME, organism-based; details: in vivo
[4] = Half life in rat hepatocytes; assay type: ADME, cell-based, Liver, Hepatocyte
Rattus norvegicus = experiment: AUC in Sprague-Dawley rat at 1 mg/kg, iv and po; assay type: ADME, organism-based, Plasma; parameters: dose 1 mg/kg, route oral; unit not given here; details: in vivo
[5] = Half life in human hepatocytes; assay type: ADME, cell-based, Liver, Hepatocyte
[6] = molecular target: Voltage-gated inwardly rectifying potassium channel KCNH2 (Homo sapiens, UniProt Q12809); experiment: Displacement of labeled dofetilide from human ERG
[7] = Apparent permeability across MDCK cells; assay type: ADME, cell-based, Canis lupus familiaris; details: dog
[8] = Human immunodeficiency virus 1, Ba-L, HOS, 96 h

Voltage-gated inwardly rectifying potassium channel KCNH2, sequence (Q12809 whole entry): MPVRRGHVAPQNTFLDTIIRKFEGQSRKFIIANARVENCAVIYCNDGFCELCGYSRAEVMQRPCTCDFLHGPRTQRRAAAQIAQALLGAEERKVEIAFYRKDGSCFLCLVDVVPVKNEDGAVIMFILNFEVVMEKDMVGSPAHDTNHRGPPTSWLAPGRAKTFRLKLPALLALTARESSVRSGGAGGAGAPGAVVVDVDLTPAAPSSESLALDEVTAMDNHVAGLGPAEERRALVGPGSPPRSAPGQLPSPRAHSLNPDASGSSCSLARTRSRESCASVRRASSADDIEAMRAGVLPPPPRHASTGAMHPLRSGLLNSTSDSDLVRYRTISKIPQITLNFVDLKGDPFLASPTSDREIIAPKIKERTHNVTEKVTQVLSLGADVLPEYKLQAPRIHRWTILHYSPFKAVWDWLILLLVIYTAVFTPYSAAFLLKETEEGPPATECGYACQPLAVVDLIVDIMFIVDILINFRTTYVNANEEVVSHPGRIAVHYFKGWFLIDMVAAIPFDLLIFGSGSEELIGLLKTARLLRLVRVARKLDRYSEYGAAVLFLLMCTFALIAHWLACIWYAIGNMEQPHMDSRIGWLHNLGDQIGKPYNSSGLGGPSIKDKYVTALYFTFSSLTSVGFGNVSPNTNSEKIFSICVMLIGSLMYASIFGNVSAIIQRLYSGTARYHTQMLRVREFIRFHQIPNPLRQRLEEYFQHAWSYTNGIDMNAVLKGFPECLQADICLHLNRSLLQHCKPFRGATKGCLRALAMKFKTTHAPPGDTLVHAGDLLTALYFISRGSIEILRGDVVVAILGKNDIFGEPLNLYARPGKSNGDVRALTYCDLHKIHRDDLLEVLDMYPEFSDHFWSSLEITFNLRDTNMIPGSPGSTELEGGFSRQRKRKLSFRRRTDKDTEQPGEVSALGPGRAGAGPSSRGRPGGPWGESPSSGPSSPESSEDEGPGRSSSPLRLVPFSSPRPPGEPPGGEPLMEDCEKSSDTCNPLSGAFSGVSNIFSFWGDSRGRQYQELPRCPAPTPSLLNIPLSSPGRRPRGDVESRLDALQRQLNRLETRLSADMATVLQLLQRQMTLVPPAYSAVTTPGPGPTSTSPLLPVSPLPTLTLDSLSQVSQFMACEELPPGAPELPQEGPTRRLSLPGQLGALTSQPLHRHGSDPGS

SMILES: Cc1nnc(C(C)C)n1[C@@H]1C[C@H]2CC[C@@H](C1)N2CCC(C)(CNS(=O)(=O)c1ccccc1)c1ccccc1 (mixture of isomers)
pIC50 [1, 8]: 6.24

pIC50 [1, 8]: 7.06
SMILES: Cn1nc(Cc2ccccc2)cc1C1CCN(CCC(CNS(=O)(=O)c2ccccc2)c2ccccc2)CC1 (racemic)

SMILES: CC(=O)N1CCc2nc(C)n([C@H]3C[C@H]4CC[C@@H](C3)N4CCC(CNS(=O)(=O)c3ccccc3)c3ccccc3)c2C1 (mixture of isomers)
pIC50 [2]: 9.00 | pIC50 [1, 8]: 8.52 | bioavailability [3]: < 1% | half-life [4]: ≤ 20 min | AUC (Rattus norvegicus): 0 | half-life [5]: ≤ 20 min

SMILES: Cc1nc2ccccc2n1[C@@H]1C[C@H]2CC[C@@H](C1)N2CCC(CNS(=O)(=O)c1ccccc1)c1ccccc1 (mixture of isomers)
pIC50 [1, 8]: 6.93

pIC50 [2]: 7.37 | pIC50 [1, 8]: 7.35
SMILES: CCc1nc(Cc2ccccc2)cn1C1CCN(CCC(CNS(=O)(=O)c2ccccc2)c2ccccc2)CC1 (racemic)

pIC50 [2]: 9.00 | pIC50 [1, 8]: 8.10 | bioavailability [3]: 2% | half-life [4]: ≤ 20 min | AUC (Rattus norvegicus): 10 | half-life [5]: ≤ 20 min
SMILES: Cc1cc(OS(=O)(=O)c2ccccc2)cc(C)c1C(=O)N1C[C@H]2CN(CCC(CNS(=O)(=O)c3ccccc3)c3ccccc3)C[C@H]2C1 (mixture of isomers)

SMILES: Cc1nnc(C(C)C)n1[C@H]1C[C@H]2CC[C@@H](C1)N2CCC(CNC(=O)C1CCC(F)(F)CC1)c1ccccc1 (mixture of isomers) [listing 1 of 2 here]
pIC50 ([1]; hos): 5.01

SMILES: Cc1nc2ccccc2n1C1CC2CCC(C1)N2CCC(CN(C)S(=O)(=O)c1ccccc1)c1ccccc1 (racemic)
pIC50 [2]: 7.22 | pIC50 [1, 8]: 8.10 | bioavailability [3]: 5% | half-life [4]: ≤ 20 min | AUC (Rattus norvegicus): 40 | half-life [5]: ≤ 20 min

SMILES: Cc1nnc(C(C)C)n1[C@H]1C[C@H]2CC[C@@H](C1)N2CCC(CNC(=O)C1CCC(F)(F)CC1)c1ccccc1 (mixture of isomers) [listing 2 of 2 here]
pIC50 [6]: ≤ 5.00 | pIC50 ([1]; hos): 6.06

SMILES: Cc1nc2ccccc2n1C1CC2CCC(C1)N2CCC(CNS(C)(=O)=O)c1ccccc1 (racemic)
pIC50 [2]: 7.00 | pIC50 [1, 8]: 7.64

SMILES: Cc1nc2ccccc2n1[C@H]1C[C@H]2CC[C@@H](C1)N2CCC(C)(CN(C)S(=O)(=O)c1ccccc1)c1ccccc1 (mixture of isomers)
Papp [7]: 7 ×10⁻⁶ cm/s | pIC50 [2]: 9.00 | pIC50 [1, 8]: 8.05 | bioavailability [3]: < 1% | half-life [4]: ≤ 20 min | AUC (Rattus norvegicus): 0 | half-life [5]: ≤ 20 min

SMILES: Cc1nc2ccccc2n1[C@H]1C[C@H]2CC[C@@H](C1)N2CCC(C)(CNS(=O)(=O)c1ccccc1)c1ccccc1 (mixture of isomers)
pIC50 [1, 8]: 6.91

pIC50 [1, 8]: 5.30
SMILES: Cc1nnc(-c2ccccc2)n1C1CCN(CCC(CNS(=O)(=O)c2ccccc2)c2ccccc2)CC1 (racemic)

SMILES: Cc1nc2ccccc2n1C1CC2CCC(C1)N2CCC(CNS(=O)(=O)c1cccc(C(N)=O)c1)c1ccccc1 (racemic)
pIC50 [2]: 6.79 | pIC50 [1, 8]: 7.80

SMILES: Cc1nc2ccccc2n1C1CC2CCC(C1)N2CCC(CNS(=O)(=O)c1ccccc1)c1ccccc1 (racemic)
pIC50 [2]: 6.95 | pIC50 [1, 8]: 7.19

SMILES: COP(=O)(NCC(CCN1C2CCC1CC(n1c(C)nc3ccccc31)C2)c1ccccc1)OC (racemic)
pIC50 [1, 8]: 7.11

SMILES: Cc1nnc(C(C)C)n1[C@H]1C[C@H]2CC[C@@H](C1)N2CCC(CNS(=O)(=O)c1ccccc1)c1ccccc1 (racemic; 14a)
pIC50 [6]: ≤ 5.00 | pIC50 ([1]; hos): 6.32

pIC50 [1, 8]: 6.44
SMILES: Cc1nc2ccccc2n1C1CCN(CCC(CNS(=O)(=O)c2ccccc2)c2ccccc2)CC1 (racemic)

SMILES: Cc1nnc(C(C)C)n1[C@H]1C[C@H]2CC[C@@H](C1)N2CCC(CNC(=O)c1ccccc1)c1ccccc1 (mixture of isomers)
pIC50 [6]: ≤ 5.00 | pIC50 [1, 8]: < 4.70

SMILES: Cc1nc2ccccc2n1C1CC2CCC(C1)N2CCC(CNC(=O)C1CCC(F)(F)CC1)c1ccccc1 (racemic)
pIC50 [1, 8]: 6.39

SMILES: Cc1nc2ccccc2n1C1CC2CCC(C1)N2CCC(CN(C)C(=O)C1CCC(F)(F)CC1)c1ccccc1 (racemic)
pIC50 [1, 8]: 6.28

SMILES: Cc1nc2ccccc2n1[C@H]1C[C@H]2CC[C@@H](C1)N2CCC(C)(CNC(=O)C1CCC(F)(F)CC1)c1ccccc1 (mixture of isomers)
pIC50 [1, 8]: 6.60

SMILES: Cc1nnc(C(C)C)n1[C@H]1C[C@H]2CC[C@@H](C1)N2CCC(CNC(=O)C1CC(F)(F)C1)c1ccccc1 (mixture of isomers)
pIC50 [1, 8]: < 4.70

SMILES: Cc1nc2ccccc2n1[C@H]1C[C@H]2CC[C@@H](C1)N2CCC(C)(CN(C)C(=O)C1CCC(F)(F)CC1)c1ccccc1 (mixture of isomers)
pIC50 [1, 8]: 6.63

SMILES: CC(=O)NCC(CCN1C2CCC1CC(n1c(C)nc3ccccc31)C2)c1ccccc1 (racemic)
pIC50 [1, 8]: 6.06

SMILES: Cc1nnc(C(C)C)n1[C@H]1C[C@H]2CC[C@@H](C1)N2CCC(CNS(=O)(=O)c1ccccc1)c1ccccc1 (racemic; 14b)
pIC50 ([1]; hos): 6.84

SMILES: Cc1nc2ccncc2n1[C@H]1C[C@H]2CC[C@@H](C1)N2CCC(CNS(=O)(=O)c1ccccc1)c1ccccc1 (mixture of isomers)
pIC50 [1, 8]: 7.42

SMILES: Cc1nnc(C(C)C)n1[C@@H]1C[C@H]2CC[C@@H](C1)N2CCC(C)(CNC(=O)C1CCC(F)(F)CC1)c1ccccc1 (mixture of isomers)
pIC50 [1, 8]: 6.23

pIC50 [1, 8]: 6.00
SMILES: Cc1nnc(C(C)C)n1C1CCN(CCC(CNS(=O)(=O)c2ccccc2)c2ccccc2)CC1 (racemic)

SMILES: Cc1nc2ccccc2n1C1CC2CCC(C1)N2CCC(CNS(=O)(=O)N1CCOCC1)c1ccccc1 (racemic)
pIC50 [1, 8]: 7.89
